Reference: patent publication US20230312587A1, “PTERIDINONE COMPOUNDS AND USES THEREOF” (Vertex Pharmaceutical Incorporated, priority 2018, published 2023)
Read-outs that look alike come from different tables or passages of the source.

Tested on: β-catenin-TCF-mediated reporter transcription activity in Colo 205 cells
Experiment: Colo 205 reporter assay (TCF/LEF luciferase)
Type: cell-based
Settings: Homo sapiens, five hours after addition of compound
Outline: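 Luciferase signal from a TCF/LEF-driven reporter, stably integrated in Colo 205 colon cancer cells, was measured 5 h after compound addition.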

[1] = COLO 205, 5 h, Colo 205 TCF/LEF luciferase reporter, read-out: TCF reporter Colo205 IC50

| Structure (SMILES) | IC50 [1] [µM] | also measured |
| --- | --- | --- |
| [2H]C([2H])([2H])C([2H])([2H])N1C(=O)[C@H](C)N(C)c2nc(N[C@H]3C[C@H](Oc4cc(F)c(F)c(F)c4)C3)nc(C)c21 [Compound 328, (7S)-5-(ethyl-d5)-4,7,8-trimethyl-2-((trans-3-(3,4,5-trifluorophenoxy)-cyclobutyl)amino)-7,8-dihydropteridin-6(5H)-one] | < 0.3 | – |
| Cc1nc(NCc2cnn(Cc3cccc(F)c3)c2)nc2c1NC(=O)[C@H](C)N2C [Compound 69, (7S)-2-(((1-(3-fluorobenzyl)-1H-pyrazol-4-yl)methyl)amino)-4,7,8-trimethyl-7,8-dihydropteridin-6(5H)-one] | < 0.3 | – |
| Cc1nc(N[C@H]2C[C@@H](Sc3ccc(C(F)(F)F)cc3)C2)nc2c1NC(=O)[C@H](C)N2C [Compound 321, (7S)-4,7,8-trimethyl-2-((cis-3-((4-(trifluoromethyl)phenyl)thio)cyclobutyl)amino)-7,8-dihydropteridin-6(5H)-one] | 0.3 to 1 | – |
| Cc1nc(NCc2cnn(Cc3ccc(F)nc3)c2)nc2c1N(C)C(=O)[C@H](C)N2C [Compound 82, (7S)-2-(((1-((6-fluoropyridin-3-yl)methyl)-1H-pyrazol-4-yl)methyl)amino)-4,5,7,8-tetramethyl-7,8-dihydropteridin-6(5H)-one] | 0.3 to 1 | – |
| CO[C@H](C)[C@H]1C(=O)Nc2c(C)nc(N[C@H]3C[C@@H](Cn4nccc4C(F)(F)F)C3)nc2N1C [Compound 588, (S)-7-((R)-1-methoxyethyl)-4,8-dimethyl-2-((cis-3-((5-(trifluoromethyl)-1H-pyrazol-1-yl)methyl)cyclobutyl)amino)-7,8-dihydropteridin-6(5H)-one] | < 0.3 | – |
| Cc1nc(N[C@H]2C[C@H](Oc3cnc(C(F)(F)F)nc3)C2)nc2c1N(C)C(=O)[C@H](C)N2C [Compound 334, (7S)-4,5,7,8-tetramethyl-2-((trans-3-((2-(trifluoromethyl)pyrimidin-5-yl)oxy)cyclobutyl)amino)-7,8-dihydropteridin-6(5H)-one] | 0.3 to 1 | – |
| C[C@H]1C(=O)Nc2cnc(NCc3cnn(Cc4cccc(C(F)(F)F)c4)c3)nc2N1C [Compound 45, (7S)-7,8-dimethyl-2-(((1-(3-(trifluoromethyl)benzyl)-1H-pyrazol-4-yl)methyl)amino)-7,8-dihydropteridin-6(5H)-one] | < 0.3 | – |
| Cc1nc(N(Cc2cnn(Cc3ccc(C(F)(F)F)nc3)c2)C(=O)CN)nc2c1NC(=O)[C@H](C)N2C [Compound 406, (7S)-2-amino-N-((1-((6-(trifluoromethyl)pyridin-3-yl)methyl)-1H-pyrazol-4-yl)methyl)-N-(4,7,8-trimethyl-6-oxo-5,6,7,8-tetrahydropteridin-2-yl)acetamide] | – | IC50 (COLO 205, 5 h, Colo 205 cells with stably transfected TCF/LEF luciferase reporter, read-out: TCF reporter Colo205): ≥ 5 µM |
| Cc1nc(N[C@H]2CCc3nn(Cc4ccc(C(F)(F)F)nc4)cc32)nc2c1NC(=O)[C@H](C)N2C [Compound 546, (7S)-4,7,8-trimethyl-2-(((S)-2-((6-(trifluoromethyl)pyridin-3-yl)methyl)-2,4,5,6-tetrahydrocyclopenta[c]pyrazol-4-yl)amino)-7,8-dihydropteridin-6(5H)-one] | ≥ 5 | – |
| Cc1nc(NCc2cnn(Cc3ccc(F)cc3F)c2)nc2c1N(C)C(=O)[C@H](C)N2C [Compound 29, (7S)-2-(((1-(2,4-difluorobenzyl)-1H-pyrazol-4-yl)methyl)amino)-4,5,7,8-tetramethyl-7,8-dihydropteridin-6(5H)-one] | < 0.3 | – |
| COc1ccc(OC[C@H]2C[C@@H](Nc3nc(C)c4c(n3)N(C)[C@@H](C(C)C)C(=O)N4)C2)cn1 [Compound 573, (S)-7-isopropyl-2-((cis-3-(((6-methoxypyridin-3-yl)oxy)methyl)cyclobutyl)amino)-4,8-dimethyl-7,8-dihydropteridin-6(5H)-one] | < 0.3 | – |
| Cc1nc(NCc2cnn(Cc3ccc(C(F)(F)F)nc3)c2)nc2c1NC(=O)[C@H](CC(F)(F)F)N2C [Compound 495, (S)-4,8-dimethyl-7-(2,2,2-trifluoroethyl)-2-(((1-((6-(trifluoromethyl)pyridin-3-yl)methyl)-1H-pyrazol-4-yl)methyl)amino)-7,8-dihydropteridin-6(5H)-one] | < 0.3 | – |
| COc1c(F)cc(Cn2cc(CNc3nc(C)c4c(n3)N(C)[C@@H](C3CC3)C(=O)N4)cn2)cc1F [Compound 457, (S)-7-cyclopropyl-2-(((1-(3,5-difluoro-4-methoxybenzyl)-1H-pyrazol-4-yl)methyl)amino)-4,8-dimethyl-7,8-dihydropteridin-6(5H)-one] | < 0.3 | – |
| Cc1nc(NCc2cnn(CCCc3ccc(C(F)(F)F)nc3)c2)nc2c1NC(=O)[C@H](C)N2C [Compound 492, (S)-4,7,8-trimethyl-2-(((1-(3-(6-(trifluoromethyl)pyridin-3-yl)propyl)-1H-pyrazol-4-yl)methyl)amino)-7,8-dihydropteridin-6(5H)-one] | 0.3 to 1 | – |
| Cc1nc(N[C@H]2C[C@@H](COc3ccc(C(F)(F)F)nc3)C2)nc2c1NC(=O)C1(CCOC1)N2C (relative stereo) [Compound 697, 4′,8′-dimethyl-2′-((cis-3-(((6-(trifluoromethyl)pyridin-3-yl)oxy)methyl)cyclobutyl)amino)-4,5,5′,8′-tetrahydro-2H,6′H-spiro[furan-3,7′-pteridin]-6′-one] | 0.3 to 1 | – |
| Cc1nc(N[C@H]2C[C@H](COc3cc(C(F)(F)F)ccn3)C2)nc2c1NC(=O)[C@H](C)N2C [Compound 369, (7S)-4,7,8-trimethyl-2-((trans-3-(((4-(trifluoromethyl)pyridin-2-yl)oxy)methyl)cyclobutyl)amino)-7,8-dihydropteridin-6(5H)-one] | ≥ 5 | – |
| Cc1nc(N[C@@H]2CC[C@H](N(C)c3ccc(C(F)(F)F)cc3)C2)nc2c1NC(=O)[C@H](C(C)C)N2C [Compound 505, (S)-7-isopropyl-4,8-dimethyl-2-(((1R,3S)-3-(methyl(4-(trifluoromethyl)phenyl)amino)cyclopentyl)amino)-7,8-dihydropteridin-6(5H)-one] | 1 to 5 | – |
| Cc1nc(N[C@H]2C[C@H](NC(=O)Nc3cc(F)c(F)c(F)c3)C2)nc2c1NC(=O)[C@H](C)N2C [Compound 474, 1-(3,4,5-trifluorophenyl)-3-(trans-3-(((S)-4,7,8-trimethyl-6-oxo-5,6,7,8-tetrahydropteridin-2-yl)amino)cyclobutyl)urea] | 1 to 5 | – |
| Cc1nc(NCc2cnn(Cc3cccnc3)c2)nc2c1NC(=O)[C@H](C)N2C [Compound 198, (7S)-4,7,8-trimethyl-2-(((1-(pyridin-3-ylmethyl)-1H-pyrazol-4-yl)methyl)amino)-7,8-dihydropteridin-6(5H)-one] | 1 to 5 | – |
| COCC1(C)C(=O)Nc2c(C)nc(N[C@H]3C[C@H](Oc4ccc(C(F)(F)F)nc4)C3)nc2N1C (relative stereo) [Compound 724, 7-(methoxymethyl)-4,7,8-trimethyl-2-((trans-3-((6-(trifluoromethyl)pyridin-3-yl)oxy)cyclobutyl)amino)-7,8-dihydropteridin-6(5H)-one] | 0.3 to 1 | – |
| COC1(C2C(=O)Nc3c(C)nc(N[C@H]4C[C@H](COc5ccc(C(F)(F)F)nc5)C4)nc3N2C)CCC1 (relative stereo) [Compound 669, 7-(1-methoxycyclobutyl)-4,8-dimethyl-2-((trans-3-(((6-(trifluoromethyl)pyridin-3-yl)oxy)methyl)cyclobutyl)amino)-7,8-dihydropteridin-6(5H)-one] | < 0.3 | – |
| Cc1nc(N[C@H]2C[C@H](OCc3ccc(F)c(F)c3)C2)nc2c1NC(=O)[C@H](C)N2C [Compound 264, (7S)-2-((trans-3-((3,4-difluorobenzyl)oxy)cyclobutyl)amino)-4,7,8-trimethyl-7,8-dihydropteridin-6(5H)-one] | < 0.3 | – |
| Cc1nc(NCc2cnn(C3CCNCC3)c2)nc2c1NC(=O)[C@H](C)N2C [Compound 99, (7S)-4,7,8-Trimethyl-2-(((1-(piperidin-4-yl)-1H-pyrazol-4-yl)methyl)amino)-7,8-dihydropteridin-6(5H)-one] | ≥ 5 | – |
| Cc1nc(NCc2cnn(Cc3ccc(C(F)(F)F)nc3)c2)nc2c1NC(=O)[C@H](CO)N2C [Compound 604, (S)-7-(hydroxymethyl)-4,8-dimethyl-2-(((1-((6-(trifluoromethyl)pyridin-3-yl)methyl)-1H-pyrazol-4-yl)methyl)amino)-7,8-dihydropteridin-6(5H)-one] | 1 to 5 | – |
| Cc1nc(N[C@H]2C[C@@H](NC(=O)Oc3cc(F)c(F)c(F)c3)C2)nc2c1NC(=O)[C@H](C)N2C [Compound 484, 3,4,5-trifluorophenyl (cis-3-(((S)-4,7,8-trimethyl-6-oxo-5,6,7,8-tetrahydropteridin-2-yl)amino)cyclobutyl)carbamate] | – | IC50 (5 h, Colo 205 TCF/LEF luciferase reporter, read-out: TCF reporter Colo205 IC50): 1 to 5 µM |
| COC1(C2C(=O)Nc3c(C)nc(NCc4cnn(Cc5ccc(C(F)(F)F)nc5)c4)nc3N2C)CCC1 (stereo not shown) [Compound 661, 7-(1-methoxycyclobutyl)-4,8-dimethyl-2-(((1-((6-(trifluoromethyl)pyridin-3-yl)methyl)-1H-pyrazol-4-yl)methyl)amino)-7,8-dihydropteridin-6(5H)-one] | < 0.3 | – |
| CCC[C@H]1C(=O)Nc2c(C)nc(NCc3cnn(Cc4ccc(C(F)(F)F)nc4)c3)nc2N1C [Compound 220, (7S)-4,8-dimethyl-7-propyl-2-(((1-((6-(trifluoromethyl)pyridin-3-yl)methyl)-1H-pyrazol-4-yl)methyl)amino)-7,8-dihydropteridin-6(5H)-one] | < 0.3 | – |
| CC[C@H]1C(=O)N(C)c2cnc(NCc3cnn(Cc4cc(F)c(F)c(F)c4)c3)nc2N1CC(F)(F)F [Compound 33, (7S)-7-ethyl-5-methyl-2-(((1-(3,4,5-trifluorobenzyl)-1H-pyrazol-4-yl)methyl)amino)-8-(2,2,2-trifluoroethyl)-7,8-dihydropteridin-6(5H)-one] | 0.3 to 1 | – |
